Reference: patent EP3822285A1, “VARIANT NISIN PEPTIDES” (University College Cork-National University of Ireland, Cork, priority 2019, dated 2021)
Values after ≈ are worked out from the molar mass of the structure shown. Values joined by “and” are separate entries in the source; they are usually repeats but may differ in a detail not shown here. Equal entries are not always repeated.

Tests used:
[1] = positive charge at position 17 replacing Methionine; Wiedemann et al., 2001; cited from earlier work
[2] = test system: S. aureus 54072; format: cell-based
Procedure: (§1) Minimum inhibitory concentration determinations were carried out in triplicate in 96 well microtitre plates. 96 well microtitre plates were pre-treated with bovine serum albumin (BSA) prior to addition of the peptides. Briefly, to each well of the microtitre plate 200 µL of phosphate buffered saline (PBS) containing 1% (w/v) bovine serum albumin (PBS/BSA) was added and incubated at 37°C for 30 min. The wells were washed with 200 µL PBS and allowed to dry. Target strains were grown overnight in the appropriate conditions and medium, subcultured into fresh broth and allowed to grow to an OD600 of ∼0.5, diluted to a final concentration of 10^5 cfu ml^-1 in a volume of 0.2 ml. The lyophilised peptides were resuspended in the appropriate media to a stock concentration of 30 µM. Wild type nisin and nisin mutant peptides were adjusted to a 7.5 or 5.0 µM or 500 nM starting concentration and 2-fold serial dilutions of each peptide were made in 96 well plates for a total of 12 dilutions.
(§2) To confirm that the observed enhanced activity of the nisin variants was due to increased specific activity, the activity of purified peptides were assessed using classical broth-based minimum inhibitory concentration (MIC) determination assays. […] Also included were the lactic acid bacteria targets L. lactis MG1363, L. lactis spp. lactis HP, B. longum UCC44b and Lb acidophilus ATCC 4356.

[3] = test system: B. longum UCC 44b; format: cell-based
Procedure: as §1, §2

[4] = test system: S. aureus RF122; format: cell-based
Procedure: as §1, §2

[5] = test system: S. aureus NCDO1499; format: cell-based
Procedure: as §1, §2

[6] = test system: L. lactis MG1363; format: cell-based
Procedure: as §1, §2

[7] = test system: Lb. acidophilus ATCC 4356; format: cell-based
Procedure: as §1, §2

[8] = test system: S. aureus 20777; format: cell-based
Procedure: as §1, §2

[9] = test system: S. aureus DPC 5247; assay: Minimum inhibitory concentration assay; format: cell-based; details: purified peptide
Procedure: as §1, §2

[10] = test system: L. lactis HP; assay: Minimum inhibitory concentration assay; format: cell-based
Procedure: as §1, §2

[11] = test system: S. aureus ST528(MRSA); assay: Minimum inhibitory concentration assay; format: cell-based; details: S. aureus ST528(MRSA); purified peptide
Procedure: as §1, §2

[12] = test system: S. aureus DPC 5245; assay: Minimum inhibitory concentration assay; format: cell-based; details: purified peptide
Procedure: as §1, §2

[13] = test system: S. aureus 5971; assay: Minimum inhibitory concentration assay; format: cell-based; details: purified peptide
Procedure: as §1, §2

[14] = test system: S. aureus 513; assay: Minimum inhibitory concentration assay; format: cell-based; details: purified peptide
Procedure: as §1, §2

[15] = test system: S. aureus ST534(MRSA); assay: Minimum inhibitory concentration assay; format: cell-based; details: S. aureus ST534(MRSA); purified peptide
Procedure: as §1, §2

[16] = test system: S. aureus DPC 5243; assay: Minimum inhibitory concentration assay; format: cell-based; details: purified peptide
Procedure: as §1, §2

[17] = test system: S. aureus 272; assay: Minimum inhibitory concentration assay; format: cell-based; details: purified peptide
Procedure: as §1, §2

[18] = test system: L. lactis HP; assay: Deferred antagonism assay; format: cell-based; details: producing strain
Procedure: (§3) Mutagenesis of the nisA gene was carried out as described previously (Field et al., 2008). Briefly, saturation mutagenesis was carried out using pDF05 (pCI372-nisA) as template and using oligonucleotides containing an NNK codon in place of each native codon. PCR amplification was performed in a 50 µl reaction containing approximately 0.5 ng of target DNA (pDF05), 1 unit Phusion High-Fidelity DNA polymerase (Finnzymes, Finland), 1 mM dNTPs and 500 ng each of the appropriate forward and reverse oligonucleotide. The reaction was pre-heated at 98°C for 2 min, and then incubated for 29 cycles at 98°C for 30 s, 55°C for 15 s and 72°C for 3 min 30 s, and then finished by incubating at 72°C for 3 min 30 s. Amplified products were treated with Dpn1 (Stratagene) for 60 min at 37°C to digest template DNA and purified using the QIAquick PCR purification kit. Following transformation of E. coli Top 10 cells plasmid DNA was isolated and sequenced using primers pCI372FOR (5' […] 3') and pCI372REV (5' […] 3') to verify that mutagenesis had taken place. Approximately 150 transformants were chosen at random for each position and inoculated into 96-well plates containing GM17 chloramphenicol, incubated overnight and stored at -20°C after addition of 80% glycerol. Deferred antagonism assays were performed by replicating strains on GM17 agar plates and allowing them to grow overnight before overlaying with BHI agar (0.75% w/v agar) seeded with the appropriate indicator strain.
(§4) Previously, site-saturation mutagenesis-based strategies were used to generate strains producing bioengineered nisin derivatives in which all residues not involved in lanthionine ring formation (i.e. I1, T2, 14, S5, L6, P9, G10, K12, G14, A15, L16, M17, G18, N20, M21, K22, A24, H27, S29 130, H31, V32, S33 and K34) were each randomised to potentially all other natural amino acids, or whereby all three residues of the hinge-region (NMK) were randomised simultaneously (Rouse et al., 2012, Healy et al., 2013, Field et al., 2008). […] From this screen 76 variants of interest from the first round of screening were incorporated into a "mini-bank" for subsequent further analysis. The number of indicator strains was increased from five to thirteen to include S. uberis 43382, S. uberis DPC5344, S. dysgalactiae ATCC43078, L. lactis 303, L. cremoris KH, Lactobacillus bulgaricus NCDO2489, Lb. helveticus 2079 and Lb. acidophilus ATCC4356 (Table 1). Following this second round of screening, 6 variants of interest were deemed worthy of closer inspection. DNA sequencing of the mutated nisin gene as well as mass spectrometric analysis of the peptide produced by each strain established that these corresponded to nisin M17Q (methionine at position 17 altered to glutamine), nisin T2L (threonine 2 leucine) nisin HTK, VGA, VGV or VGT (where the hinge residues Asn-Met-Lys have been altered to His-Thr-Lys, Val-Gly-Ala, Val-Gly-Val or Val-Gly-Thr respectively). […] As a result, these derivatives were eliminated from this study, but will be the subject of further investigation as potential anti-mastitis antimicrobials. […] In the case of the derivatives nisin T2L and nisin HTK, the activity appeared reduced and equivalent to nisin A respectively (Figure 1), while improved activity was observed by both derivatives against S. agalactiae ATCC13813 and S. aureus RF122 (Table 2). On this basis, the nisin derivatives M17Q, T2L and HTK were selected for purification and specific activity assays. Purified peptides were subjected to Mass Spectrometry to confirm the correct mass in each case. In the case of T2L and HTK derivatives, the threonine remained in the unmodified form (data not shown).

[19] = test system: S. aureus RF122; assay: Deferred antagonism assay; format: cell-based; details: producing strain
Procedure: as §3, §4

[20] = test system: L. lactis MG1363; assay: Deferred antagonism assay; format: cell-based; details: producing strain
Procedure: as §3, §4

[21] = test system: S. agalactiae ATCC13813; assay: Deferred antagonism assay; format: cell-based; details: producing strain
Procedure: as §3, §4

[22] = test system: S. aureus strains; assay: Minimum inhibitory concentration assay, panel of S. aureus strains; format: cell-based; details: panel of 12 S. aureus isolates; compared to nisin A
Procedure: as §1, §2

Nisin Z M17K
antimicrobial activity reduced to [1]: 50%

C=C(NC(=O)[C@@H](NC(=O)[C@H](Cc1c[nH]cn1)NC(=O)[C@@H](NC(=O)[C@H](CO)NC(=O)[C@@H]1CS[C@@H](C)[C@H]2NC(=O)[C@H](C)NC(=O)[C@H](NC(=O)[C@H](CCCCN)NC(=O)[C@@H](NC(=O)[C@H](Cc3c[nH]cn3)NC(=O)[C@@H]3CS[C@@H](C)[C@@H](NC(=O)[C@H](CCCCN)NC(=O)[C@@H]4CS[C@@H](C)[C@@H](NC(=O)[C@@H]5CSC[C@@H](NC(=O)/C(=C/C)NC(=O)[C@@H](N)[C@@H](C)CC)C(=O)N[C@@H]([C@@H](C)CC)C(=O)NC(=C)C(=O)N[C@@H](CC(C)C)C(=O)N5)C(=O)N5CCC[C@H]5C(=O)NCC(=O)N4)C(=O)NCC(=O)N[C@@H](C)C(=O)N[C@@H](CC(C)C)C(=O)N[C@@H](CCSC)C(=O)NCC(=O)N3)[C@@H](C)O)[C@H](C)SC[C@H](NC2=O)C(=O)N[C@@H](Cc2c[nH]cn2)C(=O)N1)[C@@H](C)CC)C(C)C)C(=O)N[C@@H](CCCCN)C(=O)O [HTK, nisin HTK]
MIC [2]: 0.25 mg/L (≈ 0.0747 µM)
MIC [3]: 0.24 mg/L (≈ 0.0717 µM)
fold decreased activity compared to wild type peptide [3]: 4 fold
MIC [4]: 1 mg/L (≈ 0.299 µM)
MIC [5]: 0.03 mg/L (≈ 0.00896 µM)
MIC [6]: 0.4 mg/L (≈ 0.12 µM)
MIC [7]: 0.12 mg/L (≈ 0.0359 µM)
fold reduction in specific activity compared to wild type nisin A [7]: 4 fold
Specific activity (MIC) ([7]; purified peptide): 0.12 Mg/L and 0.044 µM
MIC [8]: 0.125 mg/L (≈ 0.0373 µM)
Specific activity (MIC) [9]: 1 Mg/L and 0.312 µM
fold reduction in potency ([10]; compared to wild-type nisin A): 2 fold
Specific activity (MIC) ([10]; purified peptide): 0.4 Mg/L and 0.125 µM
Specific activity (MIC) [11]: 0.25 Mg/L and 0.078 µM
Specific activity (MIC) [12]: 1 Mg/L and 0.312 µM
Specific activity (MIC) [13]: 12.57 Mg/L and 3.75 µM
Specific activity (MIC) [14]: 6 Mg/L and 1.875 µM
Specific activity (MIC) [15]: 1 Mg/L and 0.312 µM
Specific activity (MIC) [16]: 1 Mg/L and 0.312 µM
Specific activity (MIC) [17]: 6 Mg/L and 1.875 µM
zone of inhibition (area of the zone of inhibition minus the area of the spot) [18]: 230.58 ± 6.71 mm2
zone of inhibition (area of the zone of inhibition minus the area of the spot) [19]: 106.66 ± 3.00 mm2
zone of inhibition (area of the zone of inhibition minus the area of the spot) [20]: 137.70 ± 5.40 mm2
zone of inhibition (area of the zone of inhibition minus the area of the spot) [21]: 148.14 ± 3.66 mm2
number of S. aureus strains with enhanced specific activity [22]: 6
